Experiments:
[1] = Partition coefficient (Log D); assay type: physicochemical
Procedure: These studies were subcontracted to Eurofins-CEREP or Eurofins-PANLABS. Briefly, agonists and antagonist assays were performed in cell cultures overexpressing the corresponding channel (CHO: TRPV1 and TRPA1; HEK293: TRPV3 and ASIC3). In vitro pharmacology, cellular channel functional assays: the compound was prepared in assay buffer to the final concentration, 10 μM. The compound wells, reference agonist and background vehicle controls were prepared in DMSO at 0.3%. […] The reference agonist for each Ion Channel was included at Emax (the concentration where the reference agonist elicited a maximal response). The agonist assay was conducted on fluorimeter instruments where the test compound, vehicle controls, and reference agonist were added to the assay plate after a fluorescence baseline was established. […] For the antagonist assay, the compound was pre-incubated for five minutes at room temperature, and then challenged with the EC80 concentration of the reference agonist after establishment of a fluorescence baseline. […] Binding assay results are expressed as a percent of control specific binding. […] Aqueous solubility (μM) was determined by comparing the peak area of the principal peak in a calibration standard (200 μM) containing organic solvent (methanol/water, 60/40, v/v) with the peak area of the corresponding peak in a buffer sample. […] Permeability was measured in CACO-2 monolayers.

[2] = test system: voltage-activated Na+ and K+ currents; assay: Whole-cell voltage-clamp, voltage-activated currents in rat DRG neurons; assay type: cell-based; conditions: 1 µM, depolarization pulse to +10 mV
Procedure: We also investigated the effect of RGM8-51 on native TRPM8 channels from rat DRG neurons. Whole-cell patch-clamp recordings from small size DRG neurons evidenced menthol (100 µM)-activated inward currents at a holding voltage of −80 mV (Figure 3A). As expected from results obtained in rTRPM8-expressing HEK293 cells, RGM8-51 (1 µM) inhibited menthol-activated currents.
Voltage-activated Na^+ and K^+ currents and TRPM8-mediated currents were recorded in DRG neurons isolated from 6-8 weeks old Sprague-Dawley rats, as previously described. Rats were sacrificed by cervical dislocation followed by decapitation and lumbar segments of the spinal column were removed and placed in a cold Ca^2+, Mg^2+-free Hank’s solution (Sigma-Aldrich, Madrid, Spain). The bone surrounding the spinal cord was removed and the right L4, L5 and L6 DRG were exposed and pulled out. […]
Data were sampled at 10 kHz (EPC10 amplifier with PatchMaster 2.53 software, HEKA Electronics, Lambrecht, Germany) and low-pass filtered at 3 kHz for analysis (PatchMaster 2.53 and GraphPad Prism 6.0, Graphpad Software, San Diego, CA, USA). […] Cell capacitance was measured and used to estimate the current density (J, pA/pF).

In the case of `C[C@@H]1C(=O)N(C[C@H](Cc2ccccc2)N(Cc2ccccc2)Cc2ccccc2)[C@]1(Cc1ccccc1)C(=O)OC(C)(C)C` [RGM8-51, 4(S)-Benzyl-3S-methyl-4-(tert-butoxy)carbonyl-1-[(2′S-dibenzylamino-3′-phenyl)prop-1′-yl]-2-oxoazetidine], the “Log D” value [1] is reported as 5.7, the logD ([1]; organic phase/aqueous buffer partition) is reported as 5.77 and the “effect on voltage-activated Na+ and K+ currents” value [2] is reported as “had no effect”.
